In PubChem BioAssay (NCI) one finds GI50 and TGI data, which are given here for 6 molecules.

Test systems include K-562 leukemia; OVCAR-4 ovarian; SN12C renal; T-47D breast; CCRF-CEM leukemia; UACC-62 melanoma; UACC-257 melanoma; U251 CNS; HCT-116 colon; NCI-H23 lung.
Holding throughout (assay): DTP human tumour cell line panel, 48 h

The structures appear in SMILES notation.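 48-hour exposure; five concentrations; linearly interpolated endpoints. Here, GI50 denotes the concentration required for 50% inhibition of growth. Definition used: TGI = concentration required for complete inhibition of growth.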 Where only a bound is given, the exact number is not on record here.

As usually defined, the GI50 is the concentration that inhibits growth by half. In general, TGI refers to the concentration at which net growth stops. A lower TGI goes with greater sensitivity of the cells. Take `COC(=O)c1cc2oc(/C=C3/SC(=S)N(N)C3=O)cc2n1Cc1ccccc1`: the GI50 in the test on K-562 leukemia was 2.08 µM; in the test with OVCAR-4 ovarian, 4.68 µM; in the test on SN12C renal, 12 µM; in the test with T-47D breast, 3.33 µM; in the test with CCRF-CEM leukemia, more than 100 µM; with UACC-62 melanoma it was 10.6 µM. Besides, the GI50 in the test with UACC-257 melanoma was 4.39 µM; in the test with U251 CNS, 3.97 µM; with HCT-116 colon, 5.73 µM; in the test with NCI-H23 lung, 4.46 µM. Further, the TGI was more than 21.7 µM with K-562 leukemia; 42.8 µM in the test with OVCAR-4 ovarian; more than 43.3 µM in the test with SN12C renal; 10.1 µM with T-47D breast; more than 100 µM in the test with CCRF-CEM leukemia; 36.1 µM in the test on UACC-62 melanoma. Further, the TGI in the test on UACC-257 melanoma was 21.5 µM; in the test on U251 CNS, 14 µM; in the test with HCT-116 colon, 18.9 µM; in the test with NCI-H23 lung, 21.2 µM.

Turning to `COc1cc(N2C(=O)[C@H](c3ccccc3)C2c2ccc(SC)cc2)cc(OC)c1OC` (stereo not given in full), the GI50 is 0.037 µM in the test with K-562 leukemia; 0.0545 µM in the test on OVCAR-4 ovarian; 0.05 µM in the test with SN12C renal; more than 100 µM in the test on T-47D breast; 0.0377 µM in the test with CCRF-CEM leukemia; 0.0484 µM in the test on UACC-62 melanoma. Moreover, the GI50 with UACC-257 melanoma was 1.66 µM; in the test on U251 CNS, 0.0375 µM; in the test on HCT-116 colon, 0.0317 µM; in the test on NCI-H23 lung, 0.0502 µM. Besides, the TGI in the test on K-562 leukemia was more than 100 µM; in the test with OVCAR-4 ovarian it was more than 100 µM; with SN12C renal, more than 100 µM; with T-47D breast, more than 100 µM; in the test with CCRF-CEM leukemia, more than 100 µM; with UACC-62 melanoma, 8.86 µM. For the same molecule, the TGI is more than 100 µM in the test on UACC-257 melanoma, more than 100 µM in the test with U251 CNS, 1.17 µM in the test on HCT-116 colon and more than 100 µM in the test on NCI-H23 lung.

As to `O=C(COc1cccc(/C=C2\CSc3ccc(Cl)cc3C2=O)c1)c1ccc(Cl)cc1`, the GI50 is 1.83 µM in the test with K-562 leukemia; 9.25 µM in the test with OVCAR-4 ovarian; 8.89 µM with SN12C renal; 0.993 µM in the test with T-47D breast; 1.66 µM in the test on CCRF-CEM leukemia; 9.04 µM in the test with UACC-62 melanoma. Also, the GI50 in the test on UACC-257 melanoma was 13.4 µM; in the test on U251 CNS it was 2.32 µM; in the test on HCT-116 colon, 1.5 µM; in the test with NCI-H23 lung, 12.9 µM. Moreover, the TGI with K-562 leukemia is 4.53 µM; in the test with OVCAR-4 ovarian, 23.1 µM; in the test on SN12C renal, 22.4 µM; with T-47D breast it was 18.4 µM; in the test with CCRF-CEM leukemia it was 4.22 µM; with UACC-62 melanoma, 22.5 µM. Moreover, the concentration for total growth inhibition (TGI) is 30.8 µM in the test on UACC-257 melanoma, 5.44 µM in the test with U251 CNS, 2.83 µM with HCT-116 colon and 42.5 µM in the test with NCI-H23 lung.

As for `NC(=S)N/N=C1\c2ccccc2-c2c(F)c(F)c(F)c(F)c21`, the GI50 is 2.09 µM in the test on K-562 leukemia; 1.65 µM in the test on OVCAR-4 ovarian; 7.31 µM in the test on SN12C renal; 1.91 µM with T-47D breast; 1.09 µM in the test with CCRF-CEM leukemia; 8.97 µM in the test on UACC-62 melanoma. Besides, the GI50 in the test with UACC-257 melanoma is 2.93 µM; in the test on U251 CNS, 3.16 µM; in the test on HCT-116 colon it was 1.67 µM; in the test on NCI-H23 lung it was 9.79 µM. The TGI in the test on K-562 leukemia turned out to be 6.61 µM; in the test on OVCAR-4 ovarian, 3.52 µM; in the test with SN12C renal, 20 µM; in the test on T-47D breast, 5.08 µM; in the test with CCRF-CEM leukemia, 3.95 µM; with UACC-62 melanoma, 24.6 µM. Moreover, the concentration for total growth inhibition (TGI) was found to be 9.38 µM in the test on UACC-257 melanoma, 10.2 µM in the test with U251 CNS, 3.15 µM in the test with HCT-116 colon and 25 µM in the test on NCI-H23 lung.

In the case of `O=C1CC(c2ccccc2)Cc2nc3ccc(Br)cc3cc21` (stereo not given), the GI50 in the test on K-562 leukemia is 0.162 µM; in the test on OVCAR-4 ovarian it was 6.93 µM; with SN12C renal it was 0.577 µM; in the test with T-47D breast, 5.68 µM; with CCRF-CEM leukemia it was 0.0492 µM; in the test with UACC-62 melanoma it was 0.26 µM. Also, the GI50 in the test with UACC-257 melanoma was 23.6 µM; in the test with U251 CNS, 0.514 µM; in the test with HCT-116 colon, 0.0509 µM; with NCI-H23 lung, 0.575 µM. Further, the TGI in the test with K-562 leukemia, with OVCAR-4 ovarian, in the test with SN12C renal, in the test with T-47D breast, in the test on CCRF-CEM leukemia and in the test with UACC-62 melanoma was more than 100 µM throughout. Moreover, the TGI in the test with UACC-257 melanoma, with U251 CNS, with HCT-116 colon and in the test on NCI-H23 lung was more than 100 µM each time.

Regarding `COc1ccc2c3c1OC1C(OC)(OC)C=C[C@@]4(Br)[C@@H](C2)N(CC2CC2)CC[C@]314` (stereo not given in full), the TGI in the test with K-562 leukemia, in the test on OVCAR-4 ovarian, in the test with SN12C renal, with T-47D breast, in the test with CCRF-CEM leukemia and in the test with UACC-62 melanoma was more than 100 µM each time. Also, the TGI in the test on UACC-257 melanoma, in the test on U251 CNS, in the test on HCT-116 colon and in the test on NCI-H23 lung was more than 100 µM each time.
